The values below come from patent US4755385A, “Oral pharmaceutical preparations containing 9-deoxo-11-deoxy-9,11-[imino[2-(2-methoxyethoxy)-ethylidene]-oxy]-(9S)-e rythromycin” (priority 1985, dated 1988).

SMILES strings stand for the structures. Read-outs that look alike come from different tables or passages of the source.

The conditions of data set [1]: DE-A1-2,515,075; particularly when given dissolved, e.g. intravenously; cited from earlier work.
Data set [2] in a line: Stability of the active substance as a function of pH (% intact substance).

For the compound `CC[C@H]1OC(=O)[C@H](C)[C@@H](O[C@H]2C[C@@](C)(OC)[C@@H](O)[C@H](C)O2)[C@H](C)[C@@H](O[C@@H]2O[C@H](C)C[C@H](N(C)C)[C@H]2O)[C@](C)(O)C[C@@H](C)[C@@H]2NC(COCCOC)O[C@H]([C@H]2C)[C@]1(C)O` (stereo partly drawn) [AS-E 136, 9-deoxo-11-deoxy-9,11-[imino[2-(2-methoxyethoxy)-ethylidene]oxy]-(9S)-erythromycin], the antibacterial activity result in data set [1] is listed as “particularly good antibacterial activity”. Besides, in data set [2] (gastric juices (pH 1.0 to 2.0)), the “stability in acidic media / gastric juices” value is “usually destroyed in a short time”. Besides, the amount remaining at 0.5 h was found to be 10% in data set [2] (pH 1); 20% in data set [2] (pH 6); 20% in data set [2] (pH 6.5); 50% in data set [2] (pH 7); 80% in data set [2] (pH 7.5); 95% in data set [2] (pH 8). Moreover, in data set [2] (pH around 5.5), the “chemical stability around pH 5.5” value is given as “retains its susceptibility to hydrolysis unchanged”.
Consider `CC[C@H]1OC(=O)[C@H](C)[C@@H](O[C@H]2C[C@@](C)(OC)[C@@H](O)[C@H](C)O2)[C@H](C)[C@@H](O[C@@H]2O[C@H](C)C[C@H](N(C)C)[C@H]2O)[C@](C)(O)C[C@@H](C)C(=O)[C@H](C)[C@@H](O)[C@]1(C)O` [erythromycin, reference compound], for which the “chemical stability around pH 5.5” value is given as “chemically stable long enough to be resorbed”. Also, in data set [2] (pH 1.3), the amount remaining at 0.5 h worked out at 30% and the fraction remaining at 1 h came out at 10%. Besides, in data set [2] (pH 4.5), the share remaining at 0.5 h worked out at 55% and the amount remaining at 1 h worked out at 50%. In data set [2] (pH 5.5), the share remaining at 0.5 h came out at 100% and the fraction remaining at 1 h is 85%.
